How the values were obtained:
soybean (Glycine max) = assay: Test E greenhouse herbicide test, pre- and postemergence; type: in vivo
In short: (§1)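 Greenhouse pots; preemergence on silt loam, postemergence on plants 1- to 4-leaf (2 to 18 cm) grown in peat, vermiculite and nutrient medium. Test chemicals formulated in non-phytotoxic solvent with surfactant. Ratings taken after 14 to 21 d.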

[1] = tested on: wild poinsettia (Euphorbia heterophylla); assay: as above; type: in vivo
In short: as §1

[2] = 62 g ai/ha, Postemergence, scale 0 to 100 (0 no effect, 100 complete control)
[3] = 125 g ai/ha, Postemergence, scale 0 to 100 (0 no effect, 100 complete control)
[4] = 250 g ai/ha, Postemergence, scale 0 to 100 (0 no effect, 100 complete control)
[5] = Postemergence, 31 g ai/ha, visual, scale 0 no effect to 100 complete control
[6] = 62 g ai/ha, Preemergence, scale 0 to 100 (0 no effect, 100 complete control)
[7] = Preemergence, 31 g ai/ha, scale 0 to 100, 0 no effect, 100 complete control
[8] = Preemergence, 250 g ai/ha, visual, scale 0 no effect to 100 complete control
[9] = 125 g ai/ha, Preemergence, scale 0 to 100 (0 no effect, 100 complete control)

## CCC(=O)Oc1c(C)nn(C)c(=O)c1-c1c(C)sc2ccc(C)cc12 [Compound 42]
Soybean (Glycine max); [2]
  Plant response rating, Soybean: 20
Soybean (Glycine max); [3]
  Plant response rating, Soybean: 30
Soybean (Glycine max); [4]
  Plant response rating, Soybean: 50
Soybean (Glycine max); [5]
  Plant response rating, Soybean: 10

## CCOC(=O)Oc1c(C)nn(C)c(=O)c1-c1c(CC)ccc2ccccc12 [Compound 37]
Soybean (Glycine max); [6]
  Plant response rating, Soybean: 0
Soybean (Glycine max); [7]
  Plant response rating, Soybean: 0
Soybean (Glycine max); [8]
  Plant response rating, Soybean: 0

## C#CCOC(=O)Oc1c(C)nn(C)c(=O)c1-c1c(C)sc2ccc(C)cc12 [Compound 87]
[1]; [6]
  Plant response rating, Poinsettia, Wild: 15
[1]; [9]
  Plant response rating, Poinsettia, Wild: 15
[1]; [7]
  Plant response rating, Poinsettia, Wild: 0
[1]; [8]
  Plant response rating, Poinsettia, Wild: 20
Soybean (Glycine max); [6]
  Plant response rating, Soybean: 0
Soybean (Glycine max); [9]
  Plant response rating, Soybean: 0
Soybean (Glycine max); [7]
  Plant response rating, Soybean: 0
Soybean (Glycine max); [8]
  Plant response rating, Soybean: 0

## COc1nn(C)c(=O)c(-c2c(C)sc3ccc(Cl)cc23)c1O [Compound 100]
[1]; [2]
  Plant response rating, Poinsettia, Wild: 0
[1]; [3]
  Plant response rating, Poinsettia, Wild: 10
[1]; [4]
  Plant response rating, Poinsettia, Wild: 35
[1]; [5]
  Plant response rating, Poinsettia, Wild: 0
Soybean (Glycine max); [3]
  Plant response rating, Soybean: 0
Soybean (Glycine max); [4]
  Plant response rating, Soybean: 0
Soybean (Glycine max); [5]
  Plant response rating, Soybean: 0

## CC(=O)Oc1c(C)nn(C)c(=O)c1-c1c(C)sc2ccc(C)cc12 [Compound 25]
[1]; [2]
  Plant response rating, Poinsettia, Wild: 30
[1]; [3]
  Plant response rating, Poinsettia, Wild: 35
[1]; [4]
  Plant response rating, Poinsettia, Wild: 60
[1]; [5]
  Plant response rating, Poinsettia, Wild: 35
Soybean (Glycine max); [2]
  Plant response rating, Soybean: 20
Soybean (Glycine max); [3]
  Plant response rating, Soybean: 30
Soybean (Glycine max); [9]
  Plant response rating, Soybean: 0
Soybean (Glycine max); [4]
  Plant response rating, Soybean: 75
Soybean (Glycine max); [5]
  Plant response rating, Soybean: 0
Soybean (Glycine max); [7]
  Plant response rating, Soybean: 0
Soybean (Glycine max); [8]
  Plant response rating, Soybean: 70

## CC(=O)Oc1c(C)nn(C)c(=O)c1-c1c(C)sc2c(C)cc(C)cc12 [Compound 27]
Soybean (Glycine max); [6]
  Plant response rating, Soybean: 0
Soybean (Glycine max); [9]
  Plant response rating, Soybean: 0
Soybean (Glycine max); [7]
  Plant response rating, Soybean: 0
Soybean (Glycine max); [8]
  Plant response rating, Soybean: 0

## CCOC(=O)Oc1c(C)nn(C)c(=O)c1-c1c(C)sc2c(C)cc(C)cc12 [Compound 83]
Soybean (Glycine max); [6]
  Plant response rating, Soybean: 0
Soybean (Glycine max); [3]
  Plant response rating, Soybean: 0
Soybean (Glycine max); [9]
  Plant response rating, Soybean: 0
Soybean (Glycine max); [4]
  Plant response rating, Soybean: 15
Soybean (Glycine max); [5]
  Plant response rating, Soybean: 0
Soybean (Glycine max); [7]
  Plant response rating, Soybean: 0
Soybean (Glycine max); [8]
  Plant response rating, Soybean: 0

## Cc1ccc2ccccc2c1-c1c(O)c(C)nn(C)c1=O [Compound 59]
Soybean (Glycine max); [6]
  Plant response rating, Soybean: 30
Soybean (Glycine max); [9]
  Plant response rating, Soybean: 30
Soybean (Glycine max); [7]
  Plant response rating, Soybean: 35
Soybean (Glycine max); [8]
  Plant response rating, Soybean: 70

## Cc1cc(C)c2sc(C)c(-c3c(OC(=O)OCCCl)c(C)nn(C)c3=O)c2c1 [Compound 85]
Soybean (Glycine max); [6]
  Plant response rating, Soybean: 0
Soybean (Glycine max); [3]
  Plant response rating, Soybean: 5
Soybean (Glycine max); [9]
  Plant response rating, Soybean: 0
Soybean (Glycine max); [4]
  Plant response rating, Soybean: 15
Soybean (Glycine max); [5]
  Plant response rating, Soybean: 0
Soybean (Glycine max); [7]
  Plant response rating, Soybean: 0
Soybean (Glycine max); [8]
  Plant response rating, Soybean: 0

Reference: patent US10597388B2, “Pyridazinone herbicides” (FMC CORPORATION, priority 2014, dated 2020)
